{"source": "patent US20250041291A1", "about": "“COMPOSITIONS AND METHODS FOR TREATING CANCER” (Emmaus Life Sciences, Inc, priority 2021, published 2025)", "type_in_all_cases": "cell-based", "key": {"[1]": {"system": "MOLM-13 cells (adult acute myeloid leukemia) expressing the FLT3-ITD mutation", "test": "caspase 3/7 activity (apoptosis) in MOLM-13 cells expressing FLT3-ITD", "procedure": "(§1) In this example, MOLM-13 cells (adult acute myeloid leukemia) expressing the FLT3-ITD mutation were used to test Compound A to decrease their cell proliferation and increase their apoptosis level. Midostaurin (mido), an inhibitor of FLT3, was used as a positive control.\n(§2) MOLM-13 cells were cultured in RPMI1640, red phenol free, in presence of 2, 10 and 25% of fetal bovine serum (FBS). 25% FBS simulates the level of serum present in the blood. Adipose stromal cells (ASC) and human fibroblast primary cells were used as reference controls. Compound A, at various concentrations (0.05 to 100 μM), was added to the cells and incubated for 24 h, with or without the co-treatment with olaparib (a PARP inhibitor, Ola). Olaparib or ibrutinib (a BTK inhibitor) alone was also tested with these cells."}, "[2]": {"system": "human adipose stromal cells (ASC)", "test": "caspase 3/7 activity (apoptosis) in human adipose stromal cells", "conditions": "25% FBS, 24 h; for activity of caspase 3 or 7 / induction of apoptosis in ASC: all tested concentrations (up to 100 μM)", "procedure": "as §2"}, "[3]": {"system": "MWCL-1 cells (adult Waldenström macroglobulinemia cells) expressing the Myd88 L265P mutation", "test": "caspase 3/7 activity (apoptosis) in MWCL-1 cells expressing Myd88 L265P", "procedure": "(§3) In this study, MWCL-1 cells (adult Waldenström macroglobulinemia cells) expressing the Myd88 L265P mutation were used to test different drugs for their effects on cell proliferation and apoptosis. Midostaurin (an inhibitor of FLT3, mido) was used as reference control.\n(§4) MWCL-1 cells were cultured in RPMI1640, in presence of 2, 10 and 25% of fetal bovine serum (FBS). The number of MWCL-1 cells decreased only at higher Compound A concentration (50 and 100 μM), during a 24 h treatment, at 2, 10 and 25% FBS (FIGS. 6A, 7A and 8A). Also, the levels of caspase 3/7 activity in the cells were elevated only at the higher concentrations (50 and 100 μM, FIGS. 6B, 7B and 8B), which is consistent with the decreased cell growth."}, "[4]": {"system": "human adipose stromal cells (ASC)", "test": "cell number (proliferation) of human adipose stromal cells after 24 h treatment", "conditions": "25% FBS; for ASC growth / ASC number as compared to vehicle control: at 100 μM", "procedure": "as §2"}, "[5]": {"system": "MOLM-13 cells (adult acute myeloid leukemia) expressing the FLT3-ITD mutation", "test": "cell number (proliferation) of MOLM-13 cells expressing FLT3-ITD", "procedure": "as §1, §2"}, "[6]": {"system": "human fibroblast primary cells", "test": "caspase 3/7 activity (apoptosis) in human fibroblast primary cells", "conditions": "25% FBS, 24 h", "procedure": "as §2"}, "[7]": {"system": "human fibroblast primary cells", "test": "cell growth (proliferation) of human fibroblast primary cells", "conditions": "at 100 μM, but not at lower concentrations; 25% FBS; 24 h", "procedure": "as §2"}, "[8]": {"system": "MWCL-1 cells (adult Waldenström macroglobulinemia cells) expressing the Myd88 L265P mutation", "test": "cell number (proliferation) of MWCL-1 cells expressing Myd88 L265P", "procedure": "as §3, §4"}, "[9]": {"conditions": "1 to 100 μM, dose-dependent, 2% or 10% FBS, 24 h"}, "[10]": {"conditions": "alone, at 10 μM, 2, 10 or 25% FBS"}}}
{"molecule": "CN1CCN(C(=O)CCCc2cn(-c3ccccc3)c(NC(=O)c3cccc(-c4cnn(C)c4)c3)n2)CC1", "note": "[Compound A, 3-(1-methyl-1H-pyrazol-4-yl)-N-(4-(4-(4-methylpiperazin-1-yl)-4-oxobutyl)-1-phenyl-1H-imidazol-2-yl)benzamide]", "values": [{"measurement": "level of caspase 3/7 activity in MOLM-13 cells", "setting": "[1]; [9]", "result": "elevated"}, {"measurement": "activity of caspase 3 or 7 / induction of apoptosis in ASC", "setting": "[2]", "result": "did not change the activity of caspase 3 or 7"}, {"measurement": "levels of caspase 3/7 activity in MWCL-1 cells", "setting": "[3]; only at 50 and 100 μM, 24 h, 2, 10 and 25% FBS", "result": "elevated"}, {"measurement": "cell number increase of human ASC as compared to vehicle control", "setting": "[4]; at 50 and 100 μM but not at lower concentrations", "result": "slower cell number increase"}, {"measurement": "numbers of MOLM-13 cells", "setting": "[5]; [9]", "result": "decreased"}, {"measurement": "response of MOLM-13 cells to anti-cancer effects (proliferation and apoptosis)", "setting": "[5]; 25% FBS, 24 h", "result": "responded to the anti-cancer effects"}, {"measurement": "efficiency compared with the other compound (cell numbers and caspase 3/7 activity, MOLM-13)", "setting": "[5]; at higher doses", "result": "more efficient at higher doses than midostaurin"}, {"measurement": "apoptosis of the fibroblasts", "setting": "[6]; tested concentrations", "result": "No apoptosis"}, {"measurement": "cell growth of human fibroblast primary cells", "setting": "[7]", "result": "slower cell growth"}, {"measurement": "efficiency compared with midostaurin (MWCL-1 cell number and caspase 3/7 activity)", "setting": "[8]; both at 100 μM, 25% FBS", "result": "more efficient than midostaurin"}, {"measurement": "number of MWCL-1 cells", "setting": "[8]; only at 50 and 100 μM, 24 h treatment, 2, 10 and 25% FBS", "result": "decreased"}]}
{"molecule": "4-[(3-[(4-cyclopropylcarbonyl)piperazin-1-yl]carbonyl)-4-fluorophenyl]methyl(2H)phthalazin-1-one [olaparib, reference compound]", "values": [{"measurement": "apoptotic levels of MOLM-13 cells", "setting": "[1]; [10]", "result": "increased the apoptotic levels"}, {"measurement": "activity of caspase 3 or 7 / induction of apoptosis in ASC", "setting": "[2]", "result": "did not induce apoptosis"}, {"measurement": "caspase 3/7 activity in MWCL-1 cells", "setting": "[3]; at 50, 100 μM, 25% FBS", "result": "increased the caspase 3/7 activity"}, {"measurement": "ASC growth / ASC number as compared to vehicle control", "setting": "[4]", "result": "inhibited ASC growth"}, {"measurement": "numbers of MOLM-13 cells", "setting": "[5]; [10]", "result": "did not decrease"}]}
{"molecule": "C=CC(=O)N1CCC[C@@H](n2nc(-c3ccc(Oc4ccccc4)cc3)c3c(N)ncnc32)C1", "note": "[ibrutinib, 1-[(3R)-3-[4-Amino-3-(4-phenoxyphenyl)-1H-pyrazolo[3,4-d]pyrimidin-1-yl]piperidin-1-yl]prop-2-en-1-one]", "values": [{"measurement": "apoptosis (caspase 3/7 activities) of ASC", "setting": "[2]; at 100 μM, but not at lower concentrations", "result": "induced apoptosis"}, {"measurement": "ASC growth / ASC number as compared to vehicle control", "setting": "[4]", "result": "decrease of ASC number"}, {"measurement": "caspase 3/7 activities in the fibroblasts", "setting": "[6]; at 100 μM", "result": "increased the caspase 3/7 activities"}]}
